Measured values published in US20250313572A1, “MACROCYCLIC MCL-1 INHIBITORS AND METHODS OF USE” (AbbVie Inc., priority 2017, published 2025).
Read-outs that look alike come from different tables or passages of the source.

What was measured:
[1] = target: GST-MCL-1 (Homo sapiens, UniProt Q07820); experiment: TR-FRET MCL-1 binding assay (competition with probe F-Bak)
Procedure, shortened: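 Test compounds, 11 three-fold dilutions from 25 μM final, incubated 2 hours at room temperature with GST-MCL-1, F-Bak probe and Tb-anti-GST antibody. TR-FRET read at 340/35 nm excitation with 520/525 and 495/510 nm emission. Run without human serum and with 10% HS.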

[2] = test system: AMO-1 human multiple myeloma tumor cell line; experiment: AMO-1 cell viability assay (CellTiter-Glo, 24 hours); type: cell-based
[3] = test system: NCI-H929 human multiple myeloma tumor cell line; experiment: NCI-H929 cell viability assay (CellTiter-Glo, 24 hours); type: cell-based
Description: Each concentration was tested in duplicate at least 3 independent times. A luminescent signal proportional to the number of viable cells following 24 hours of compound treatment was determined using the CellTiter-Glo® Luminescent Cell Viability Assay according to the manufacturer's recommendations (Promega Corp., Madison, WI). The plates were read in a Perkin Elmer Envision using a Luminescence protocol. To generate dose response curves the data is normalized to percent viability by setting the averages of the staurosporine (10 μM) and DMSO only control wells to 0% and 100% viability respectively.

[4] = MCL-1 Binding Ki (nM, 10% HS), in the presence of 10% HS (human serum)
[5] = without HS, read-out: MCL-1 Binding Ki
[6] = Homo sapiens, AMO1, 24 h, read-out: AMO-1 Viability IC50 (μM, 10% FBS), 10% FBS, 24 hours of compound treatment
[7] = Homo sapiens, NCI-H929, 24 h, read-out: H929 Viability IC50 (μM, 10% FBS), 10% FBS, 24 hours of compound treatment

Chain of GST-MCL-1 (Q07820 whole entry): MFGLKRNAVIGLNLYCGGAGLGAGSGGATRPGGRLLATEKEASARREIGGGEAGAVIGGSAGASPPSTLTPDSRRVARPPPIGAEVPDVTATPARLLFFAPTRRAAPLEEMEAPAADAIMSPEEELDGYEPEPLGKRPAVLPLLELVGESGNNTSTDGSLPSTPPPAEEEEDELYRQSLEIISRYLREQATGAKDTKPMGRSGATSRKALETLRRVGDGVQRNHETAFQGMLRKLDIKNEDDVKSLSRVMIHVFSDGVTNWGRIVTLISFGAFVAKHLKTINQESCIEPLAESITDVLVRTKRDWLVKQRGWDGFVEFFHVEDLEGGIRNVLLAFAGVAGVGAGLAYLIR

SMILES	Ki [1, 4] [nM]	Ki [1, 5] [nM]	IC50 [2, 6] [µM]	IC50 [3, 7] [µM]	IC50 ([2]; read-out: AMO-1 Viability IC50 (μM, 10% FBS), 10% FBS, 24 hours of compound treatment) [µM]	IC50 ([3]; read-out: H929 Viability IC50 (μM, 10% FBS), 10% FBS, 24 hours of compound treatment) [µM]
COCCOCCOCCN(CCOCCOCCOC)c1nccc(COc2ccc3cc2C[C@H](C(=O)O)Oc2ncnc4sc(-c5ccc(F)cc5)c(c24)-c2c(C)c(Cl)c(c(Cl)c2C)O[C@H](CN2CCN(C)CC2)CO3)n1 [Example 93, (7R,16R)-10-{[2-(bis{2-[2-(2-methoxyethoxy)ethoxy]ethyl}amino)pyrimidin-4-yl]methoxy}-19,23-dichloro-1-(4-fluorophenyl)-20,22-dimethyl-16-[(4-methylpiperazin-1-yl)methyl]-7,8,15,16-tetrahydro-18,21-etheno-13,9-(metheno)-6,14,17-trioxa-2-thia-3,5-diazacyclononadeca[1,2,3-cd]indene-7-carboxylic Acid]	4.34	0.748	0.00553	0.00424	–	–
COCCOCCOCCOCC1(F)CC=C(c2nccc(COc3ccc4cc3C[C@H](C(=O)O)Oc3ncnc5sc(-c6ccc(F)cc6)c(c35)-c3c(C)c(Cl)c(c(Cl)c3C)O[C@H](CN3CCN(C)CC3)CO4)n2)CC1 (single isomer, unassigned) [Example 101, (7R,16R)-19,23-dichloro-1-(4-fluorophenyl)-10-({2-[(4S*)-4-fluoro-4-(2,5,8,11-tetraoxadodecan-1-yl)cyclohex-1-en-1-yl]pyrimidin-4-yl}methoxy)-20,22-dimethyl-16-[(4-methylpiperazin-1-yl)methyl]-7,8,15,16-tetrahydro-18,21-etheno-13,9-(metheno)-6,14,17-trioxa-2-thia-3,5-diazacyclononadeca[1,2,3-cd]indene-7-carboxylic Acid]	0.235	0.02	0.000195	0.000298	–	–
Cc1c(Cl)c2c(Cl)c(C)c1-c1c(-c3ccc(F)cc3)sc3ncnc(c13)O[C@@H](C(=O)O)Cc1cc(ccc1OCc1ccnc([C@H]3CC[C@H](CC(=O)O)CC3)n1)OC[C@@H](CN1CCN(C)CC1)O2 [Example 32, (7R,16R)-10-({2-[(1r,4r)-4-(carboxymethyl)cyclohexyl]pyrimidin-4-yl}methoxy)-19,23-dichloro-1-(4-fluorophenyl)-20,22-dimethyl-16-[(4-methylpiperazin-1-yl)methyl]-7,8,15,16-tetrahydro-18,21-etheno-13,9-(metheno)-6,14,17-trioxa-2-thia-3,5-diazacyclononadeca[1,2,3-cd]indene-7-carboxylic Acid]	0.034	0.003	0.00878	0.0143	–	–
COCCOCCOCC1(F)CC=C(c2nccc(COc3ccc4cc3C[C@H](C(=O)O)Oc3ncnc5sc(C6CCC6)c(c35)-c3c(C)c(Cl)c(c(Cl)c3C)O[C@H](CN3CCN(C)CC3)CO4)n2)CC1 (single isomer, unassigned) [Example 130, (7R,16R)-19,23-dichloro-1-cyclobutyl-10-({2-[(4R*)-4-fluoro-4-{[2-(2-methoxyethoxy)ethoxy]methyl}cyclohex-1-en-1-yl]pyrimidin-4-yl}methoxy)-20,22-dimethyl-16-[(4-methylpiperazin-1-yl)methyl]-7,8,15,16-tetrahydro-18,21-etheno-13,9-(metheno)-6,14,17-trioxa-2-thia-3,5-diazacyclononadeca[1,2,3-cd]indene-7-carboxylic Acid]	1.74	0.026	0.000309	0.000489	–	–
COCCOCCOCCOCCOCC1(F)CC=C(c2nccc(COc3ccc4cc3C[C@H](C(=O)O)Oc3ncnc5sc(-c6ccc(F)cc6)c(c35)-c3c(C)c(Cl)c(c(Cl)c3C)O[C@H](CN3CCN(C)CC3)CO4)n2)CC1 (single isomer, unassigned) [Example 114, (7R,16R)-19,23-dichloro-10-({2-[(4S*)-4-fluoro-4-(2,5,8,11,14-pentaoxapentadecan-1-yl)cyclohex-1-en-1-yl]pyrimidin-4-yl}methoxy)-1-(4-fluorophenyl)-20,22-dimethyl-16-[(4-methylpiperazin-1-yl)methyl]-7,8,15,16-tetrahydro-18,21-etheno-13,9-(metheno)-6,14,17-trioxa-2-thia-3,5-diazacyclononadeca[1,2,3-cd]indene-7-carboxylic Acid]	0.15	0.018	–	–	0.000197	0.000331
COCCOCCOCCOc1cccc(COc2ccc3cc2C[C@H](C(=O)O)Oc2ncnc4sc(-c5ccc(F)cc5)c(c24)-c2c(C)c(Cl)c(c(Cl)c2C)O[C@H](CN2CCN(C)CC2)CO3)c1 [Example 156, (7R,16R)-19,23-dichloro-1-(4-fluorophenyl)-10-[(3-{2-[2-(2-methoxyethoxy)ethoxy]ethoxy}phenyl)methoxy]-20,22-dimethyl-16-[(4-methylpiperazin-1-yl)methyl]-7,8,15,16-tetrahydro-18,21-etheno-13,9-(metheno)-6,14,17-trioxa-2-thia-3,5-diazacyclononadeca[1,2,3-cd]indene-7-carboxylic Acid]	23.6	1.88	0.00453	0.0111	–	–
Cc1c(Cl)c2c(Cl)c(C)c1-c1c(-c3ccc(F)cc3)sc3ncnc(c13)O[C@@H](C(=O)O)Cc1cc(ccc1OCc1ccnc([C@H]3CC[C@@H](CC(=O)O)CC3)n1)OC[C@@H](CN1CCN(C)CC1)O2 [Example 31, (7R,16R)-10-({2-[(1 s,4s)-4-(carboxymethyl)cyclohexyl]pyrimidin-4-yl}methoxy)-19,23-dichloro-1-(4-fluorophenyl)-20,22-dimethyl-16-[(4-methylpiperazin-1-yl)methyl]-7,8,15,16-tetrahydro-18,21-etheno-13,9-(metheno)-6,14,17-trioxa-2-thia-3,5-diazacyclononadeca[1,2,3-cd]indene-7-carboxylic Acid]	0.049	0.004	0.00743	0.0133	–	–
CO[C@@H]1CO[C@H]2[C@@H]1OC[C@H]2OCCOc1nccc(COc2ccc3cc2C[C@H](C(=O)O)Oc2ncnc4sc(-c5ccc(F)cc5)c(c24)-c2c(C)c(Cl)c(c(Cl)c2C)O[C@H](CN2CCN(C)CC2)CO3)n1 [Example 134, (7R,16R)-19,23-dichloro-1-(4-fluorophenyl)-10-{[2-(2-{[(3R,3aR,6R,6aR)-6-methoxyhexahydrofuro[3,2-b]furan-3-yl]oxy}ethoxy)pyrimidin-4-yl]methoxy}-20,22-dimethyl-16-[(4-methylpiperazin-1-yl)methyl]-7,8,15,16-tetrahydro-18,21-etheno-13,9-(metheno)-6,14,17-trioxa-2-thia-3,5-diazacyclononadeca[1,2,3-cd]indene-7-carboxylic Acid]	0.339	0.047	0.00304	0.01	–	–
Cc1c(Cl)c2c(Cl)c(C)c1-c1c(-c3ccc(F)cc3)sc3ncnc(c13)O[C@@H](C(=O)O)Cc1cc(ccc1OCc1ccnc(-c3ccc(OC[C@H](O)CO)cc3)n1)OC[C@@H](CN1CCN(C)CC1)O2 [Example 22, (7R,16R)-19,23-dichloro-10-[(2-{4-[(2R)-2,3-dihydroxypropoxy]phenyl}pyrimidin-4-yl)methoxy]-1-(4-fluorophenyl)-20,22-dimethyl-16-[(4-methylpiperazin-1-yl)methyl]-7,8,15,16-tetrahydro-18,21-etheno-13,9-(metheno)-6,14,17-trioxa-2-thia-3,5-diazacyclononadeca[1,2,3-cd]indene-7-carboxylic Acid]	0.214	0.015	0.00133	0.0018	–	–
Cc1c(Cl)c2c(Cl)c(C)c1-c1c(-c3ccc(F)cc3)sc3ncnc(c13)O[C@@H](C(=O)O)Cc1cc(ccc1OCc1ccnc(-c3ccc(O[C@H]4CO[C@H]5[C@@H]4OC[C@H]5O)cc3)n1)OC[C@@H](CN1CCN(C)CC1)O2 [Example 161, (7R,16R)-19,23-dichloro-1-(4-fluorophenyl)-10-{[2-(4-{[(3S,3aR,6R,6aR)-6-hydroxyhexahydrofuro[3,2-b]furan-3-yl]oxy}phenyl)pyrimidin-4-yl]methoxy}-20,22-dimethyl-16-[(4-methylpiperazin-1-yl)methyl]-7,8,15,16-tetrahydro-18,21-etheno-13,9-(metheno)-6,14,17-trioxa-2-thia-3,5-diazacyclononadeca[1,2,3-cd]indene-7-carboxylic Acid]	0.141	0.002	0.000262	0.000502	–	–
COCCOCCOCC1CN(c2nccc(COc3ccc4cc3C[C@H](C(=O)O)Oc3ncnc5sc(-c6ccc(F)cc6)c(c35)-c3c(C)c(Cl)c(c(Cl)c3C)O[C@H](CN3CCN(C)CC3)CO4)n2)C1 [Example 139, (7R,16R)-19,23-dichloro-1-(4-fluorophenyl)-10-{[2-(3-{[2-(2-methoxyethoxy)ethoxy]methyl}azetidin-1-yl)pyrimidin-4-yl]methoxy}-20,22-dimethyl-16-[(4-methylpiperazin-1-yl)methyl]-7,8,15,16-tetrahydro-18,21-etheno-9,13-(metheno)-6,14,17-trioxa-2-thia-3,5-diazacyclononadeca[1,2,3-cd]indene-7-carboxylic Acid]	1.21	0.147	0.00231	0.00307	–	–
